US20250302080A1, “SWEETNESS AND/OR FLAVOR ENHANCER” (AJINOMOTO CO., INC., priority 2022, published 2025)

Columns and labels:
[1] = Sensory evaluation of sweetness intensity in sucrose-containing cafe au lait (Experimental Examples 6-10); conditions: added alone, 3.0 points or more
Method: The starting materials were mixed according to the blending rate in Table 6 to prepare a cafe au lait containing sucrose (hereinafter referred to as “negative control cafe au lait”).
A sensory evaluation of the presence or absence of sweetness intensity enhancement was performed for each sample by a panel of four experts according to the following evaluation criteria.
Sweetness intensity was evaluated by 0.0 to 10.0 point based on the following reference samples (negative control (hereinafter referred to as NC) (0.0 point); reference 1 (hereinafter referred to as R1) (5.0 points); reference 2 (hereinafter referred to as R2) (10.0 points)). The average score (rounded to two decimal places) of each expert panelist was calculated. An average score of 3.0 points or more was considered to be functional. • NC (0.0 point): cafe au lait prepared by mixing starting materials at the blending rate in Table 6 (i.e., negative control cafe au lait). • R1 (5.0 points): drink with 0.15 g of sucrose added per 99.85 g of NC. • R2 (10.0 points): drink with 0.30 g of sucrose added per 99.70 g of NC.
A sensory evaluation of sweetness intensity was performed for each sample by a panel of four experts according to the same evaluation criteria as in Experimental Example 6.
A sensory evaluation of the presence or absence of sweetness intensity enhancement was performed for each sample by a panel of four experts according to the same evaluation criteria as in Experimental Example 6.

[2] = Sensory evaluation of sweetness intensity in aspartame solution (Experimental Example 11); conditions: added alone, 3.0 points or more
Method: A negative control aspartame solution (0.063 wt % aspartame solution) was prepared by dissolving aspartame in filtered water.
A sensory evaluation of sweetness intensity was performed for each sample by a panel of three experts according to the following evaluation criteria.
Sweetness intensity was evaluated by 0.0 to 10.0 points based on the following reference samples (negative control (hereinafter referred to as NC) (0.0 point); reference 1 (hereinafter referred to as R1) (5.0 points); reference 2 (hereinafter referred to as R2) (10.0 points)). The average score (rounded to two decimal places) of each expert panelist was calculated. An average score of 3.0 points or more was considered to be functional. • NC (0.0 point): 0.063 wt % aspartame solution (solvent: filtered water) • R1 (5.0 points): 0.066 wt % aspartame solution (solvent: filtered water) • R2 (10.0 points): 0.069 wt % aspartame solution (solvent: filtered water)

[3] = Sensory evaluation of sweetness intensity in yogurt drink (Experimental Example 14); conditions: added alone, 3.0 points or more
Method: (§1) Yogurt drink (product name: 7 Premium Yogurt Drink, SEVEN-ELEVEN JAPAN CO., LTD.) was diluted 1.2 times with filtered water to prepare negative control yogurt drink.
(§2) When the carbohydrate content of 7 Premium Yogurt Drink is calculated as the total sucrose content, the negative control yogurt drink contains 10.75 g of sucrose per 100 g.
(§3) A sensory evaluation of sweetness intensity and yogurt flavor intensity was performed for each sample by a panel of three experts according to the following evaluation criteria.
(§4) Sweetness intensity and yogurt flavor intensity were each evaluated by 0.0 to 10.0 point based on the following reference samples (negative control (hereinafter referred to as NC) (0.0 point); reference 1 (hereinafter referred to as R1) (5.0 points); reference 2 (hereinafter referred to as R2) (10.0 points)). The average score (rounded to two decimal places) of each expert panelist was calculated. An average score of 3.0 points or more was considered to be functional. • NC (0.0 point): yogurt drink (product name: 7 Premium Yogurt Drink, SEVEN-ELEVEN JAPAN CO., LTD.) diluted 1.2 times with filtered water. • R1 (5.0 points): with 0.54 g of sucrose added per 99.46 g of NC. • R2 (10.0 points): with 1.08 g of sucrose added per 98.92 g of NC.

[4] = Sensory evaluation of yogurt flavor intensity in yogurt drink (Experimental Example 14); conditions: added alone, 3.0 points or more
Method: as §1, §2, §3, §4

[5] = Sensory evaluation of sweetness intensity in black tea au lait (Experimental Example 15); conditions: added alone; for concentration at which a sweetness-enhancing effect was confirmed: 3.0 points or more
Method: (§5) Instant black tea au lait powder (product name: Blendy (registered trademark) Stick Black Tea Au Lait (Ajinomoto AGF, Inc.)) was prepared according to the instructions, and then diluted 1.2 times with filtered water to prepare negative control black tea au lait.
(§6) When the carbohydrate content of Blendy (registered trademark) Stick Black Tea Au Lait is calculated as the total sucrose content, the negative control black tea au lait contains 5.2 g of sucrose per 100 g.
(§7) A sensory evaluation of sweetness intensity and black tea au lait flavor intensity was performed for each sample by a panel of three experts according to the following evaluation criteria.
(§8) Sweetness intensity and black tea au lait flavor intensity were each evaluated by 0.0 to 10.0 point based on the following reference samples (negative control (hereinafter referred to as NC) (0.0 point); reference 1 (hereinafter referred to as R1) (5.0 points); reference 2 (hereinafter referred to as R2) (10.0 points)). The average score (rounded to two decimal places) of each expert panelist was calculated. An average score of 3.0 points or more was considered to be functional. • NC (0.0 point): black tea au lait (product name: Black Tea Au Lait, Ajinomoto AGF, Inc.) prepared according to the instructions, and then diluted 1.2 times with filtered water (i.e., negative control black tea au lait). • R1 (5.0 points): with 0.26 g of sugar added per 99.74 g of NC. • R2 (10.0 points): with 0.52 g of sugar added per 99.48 g of NC.

[6] = Sensory evaluation of black tea au lait flavor intensity (Experimental Example 15); conditions: added alone; for black tea au lait flavor-enhancing effect (in words): 0.0001-1000 ppb
Method: as §5, §6, §7, §8

[7] = Sensory evaluation of sweetness intensity in sucrose solution (Experimental Examples 25-27); conditions: added alone, 3.0 points or more
Method: A negative control sucrose solution (0.7 wt % sucrose solution) was prepared by dissolving sucrose in filtered water.
A sensory evaluation of sweetness intensity was performed for each sample by a panel of four experts according to the following evaluation criteria.
Sweetness intensity was evaluated by 0.0 to 10.0 points based on the following reference samples (negative control (hereinafter referred to as NC) (0.0 point); reference 1 (hereinafter referred to as R1) (3.0 points), reference 2 (hereinafter referred to as R2) (5.0 points); reference 3 (hereinafter referred to as R3) (10.0 points)). The average score (rounded to two decimal places) of each expert panelist was calculated. An average score of 3.0 points or more was considered to be functional. • NC (0.0 point): 7.0 wt % sucrose solution (solvent: filtered water) • R1 (3.0 points): 7.3 wt % sucrose solution (solvent: filtered water) • R2 (5.0 points): 7.5 wt % sucrose solution (solvent: filtered water) • R3 (10.0 points): 8.0 wt % sucrose solution (solvent: filtered water)
A sensory evaluation of sweetness intensity was performed for each sample by a panel of four experts according to the same evaluation criteria as in Experimental Example 25.

Row | SMILES | concentration at which a sweetness-enhancing effect was confirmed [1] [ppb] | concentration at which a sweetness-enhancing effect was confirmed [2] [ppb] | concentration at which a sweetness-enhancing effect was confirmed [3] [ppb] | concentration at which a yogurt flavor-enhancing effect was confirmed [4] [ppb] | concentration at which a sweetness-enhancing effect was confirmed [5] [ppb] | black tea au lait flavor-enhancing effect (in words) [6] | sweetness-enhancing effect (in words) ([5]; 0.0001-1000 ppb) | concentration at which a sweetness-enhancing effect was confirmed [7] [ppb] | concentration at which a black tea au lait flavor-enhancing effect was confirmed ([6]; 3.0 points or more) [ppb]
1 | CC1=C(O)C(=O)CC1 [cyclotene] | ≥ 0.1 | 10 | ≥ 0.01 | ≥ 0.01 | ≥ 1 | concentration-dependent black tea au lait flavor-enhancing effect | – | – | –
2 | CCCCCCCCCC(=O)O [decanoic acid] | ≥ 1 | 10 | ≥ 0.1 | ≥ 0.01 | – | concentration-dependent black tea au lait flavor-enhancing effect | concentration-dependent sweetness-enhancing effect | 10 | –
3 | CC(C)CCC(=O)O [4-methylpentanoic acid] | ≥ 0.1 | 100 | ≥ 1 | ≥ 0.1 | ≥ 100 | – | – | – | ≥ 1
